Experimental data reported in ChEMBL document CHEMBL4004803, “Syntheses and antibacterial activity of soluble 9-bromo substituted indolizinoquinoline-5,12-dione derivatives” (Eur J Med Chem, 2017).
In brackets after ≈: the same amount, converted by molar mass.

Key:
Type in all cases: functional
[1] = system: Staphylococcus epidermidis; assay: Antibacterial activity against Staphylococcus epidermidis ATCC 12228 after 20 to 24 hrs by two-fold microdilution method
Enterococcus faecalis = assay: Antibacterial activity against Enterococcus faecalis ATCC 29212 after 20 to 24 hrs by two-fold microdilution method
Streptococcus pneumoniae = assay: Antibacterial activity against Streptococcus pneumoniae ATCC 6305 after 20 to 24 hrs by two-fold microdilution method
Escherichia coli = assay: Antibacterial activity against Escherichia coli ATCC 25922 after 20 to 24 hrs by two-fold microdilution method
Staphylococcus aureus [2] = assay: Antibacterial activity against methicillin-resistant Staphylococcus aureus ATCC 43300 after 20 to 24 hrs by two-fold microdilution method
Streptococcus pyogenes = assay: Antibacterial activity against Streptococcus pyogenes ATCC 19615 after 20 to 24 hrs by two-fold microdilution method
Staphylococcus aureus [3] = assay: Antibacterial activity against […] Staphylococcus aureus ATCC 25923 after 20 to 24 hrs by two-fold microdilution method
[4] = system: Staphylococcus haemolyticus; assay: Antibacterial activity against Staphylococcus haemolyticus CICC 10373 after 20 to 24 hrs by two-fold microdilution method
Staphylococcus aureus [5] = assay: Antibacterial activity against methicillin-resistant Staphylococcus aureus clinical isolate after 20 to 24 hrs by two-fold microdilution method
Staphylococcus aureus [6] = assay: Antibacterial activity against methicillin-resistant Staphylococcus aureus 1103006 clinical isolate after 20 to 24 hrs by two-fold microdilution method
Staphylococcus aureus [7] = assay: Antibacterial activity against methicillin-resistant Staphylococcus aureus 1026021 clinical isolate after 20 to 24 hrs by two-fold microdilution method
Staphylococcus aureus [8] = assay: Antibacterial activity against methicillin-resistant Staphylococcus aureus 1106003 clinical isolate after 20 to 24 hrs by two-fold microdilution method
Staphylococcus aureus [9] = assay: Antibacterial activity against methicillin-resistant Staphylococcus aureus 1216052 clinical isolate after 20 to 24 hrs by two-fold microdilution method
Staphylococcus aureus [10] = assay: Antibacterial activity against methicillin-resistant Staphylococcus aureus 111423 clinical isolate after 20 to 24 hrs by two-fold microdilution method

| SMILES | MIC [1] [µg/mL] | MIC (Enterococcus faecalis) [µg/mL] | MIC (Streptococcus pneumoniae) [µg/mL] | MIC (Escherichia coli) [µg/mL] | MIC (Staphylococcus aureus [2]) [µg/mL] | MIC (Streptococcus pyogenes) [µg/mL] | MIC (Staphylococcus aureus [3]) [µg/mL] | MIC [4] [µg/mL] | MIC50 (Staphylococcus aureus [5]) [µg/mL] | MIC90 (Staphylococcus aureus [5]) [µg/mL] | MIC (Staphylococcus aureus [6]) [µg/mL] | MIC (Staphylococcus aureus [7]) [µg/mL] | MIC (Staphylococcus aureus [8]) [µg/mL] | MIC (Staphylococcus aureus [9]) [µg/mL] | MIC (Staphylococcus aureus [10]) [µg/mL] |
| --- | --- | --- | --- | --- | --- | --- | --- | --- | --- | --- | --- | --- | --- | --- | --- |
| CN1CCN(CCCCOC(=O)c2c3c(n4cc(Br)ccc24)C(=O)c2ncccc2C3=O)CC1 | 0.031 (≈ 0.059 µM) | 0.5 (≈ 0.952 µM) | 2 (≈ 3.81 µM) | 8 (≈ 15.2 µM) | 0.5 (≈ 0.952 µM) | 8 (≈ 15.2 µM) | 0.25 (≈ 0.476 µM) | 1 (≈ 1.9 µM) | – | – | – | – | – | – | – |
| O=C1c2cccnc2C(=O)c2c1c(C(=O)OCCN1CCCC1)c1ccc(Br)cn21 | 0.031 (≈ 0.0662 µM) | 0.5 (≈ 1.07 µM) | 4 (≈ 8.54 µM) | 0.5 (≈ 1.07 µM) | 0.5 (≈ 1.07 µM) | 8 (≈ 17.1 µM) | 0.5 (≈ 1.07 µM) | 0.5 (≈ 1.07 µM) | – | – | – | – | – | – | – |
| COP(=O)(CCOC(=O)c1c2c(n3cc(Br)ccc13)C(=O)c1ncccc1C2=O)OC | 0.5 (≈ 0.986 µM) | 0.5 (≈ 0.986 µM) | 16 (≈ 31.5 µM) | 16 (≈ 31.5 µM) | 1 (≈ 1.97 µM) | 16 (≈ 31.5 µM) | 1 (≈ 1.97 µM) | 1 (≈ 1.97 µM) | – | – | – | – | – | – | – |
| CN1CCN(CCOC(=O)c2c3c(n4cc(Br)ccc24)C(=O)c2ncccc2C3=O)CC1 | 1 (≈ 2.01 µM) | 8 (≈ 16.1 µM) | 16 (≈ 32.2 µM) | 1 (≈ 2.01 µM) | 2 (≈ 4.02 µM) | 8 (≈ 16.1 µM) | 2 (≈ 4.02 µM) | 8 (≈ 16.1 µM) | – | – | – | – | – | – | – |
| CC1(C)S[C@@H]2[C@H](NC(=O)Cc3ccccc3)C(=O)N2[C@H]1C(=O)O [PENICILLIN G] | 8 (≈ 23.9 µM) | 1 (≈ 2.99 µM) | ≤ 0.0078 | > 16 | > 16 | ≤ 0.0078 | 0.063 (≈ 0.188 µM) | ≤ 0.0078 | – | – | – | – | – | – | – |
| O=C1c2cccnc2C(=O)c2c1c(C(=O)OCCCCCCN1CCCC1)c1ccc(Br)cn21 | ≤ 0.0078 | 0.5 (≈ 0.953 µM) | 1 (≈ 1.91 µM) | 1 (≈ 1.91 µM) | 0.5 (≈ 0.953 µM) | 4 (≈ 7.63 µM) | 0.5 (≈ 0.953 µM) | 2 (≈ 3.81 µM) | – | – | – | – | – | – | – |
| O=C1c2cccnc2C(=O)c2c1c(C(=O)OCCCN1CCCCC1)c1ccc(Br)cn21 | 0.5 (≈ 1.01 µM) | 4 (≈ 8.06 µM) | 16 (≈ 32.2 µM) | 8 (≈ 16.1 µM) | 4 (≈ 8.06 µM) | 16 (≈ 32.2 µM) | 4 (≈ 8.06 µM) | 2 (≈ 4.03 µM) | – | – | – | – | – | – | – |
| O=C1c2cccnc2C(=O)c2c1c(C(=O)OCCCN1CCOCC1)c1ccc(Br)cn21 | 0.25 (≈ 0.502 µM) | 2 (≈ 4.01 µM) | 16 (≈ 32.1 µM) | 16 (≈ 32.1 µM) | 0.5 (≈ 1 µM) | 16 (≈ 32.1 µM) | 0.5 (≈ 1 µM) | 4 (≈ 8.03 µM) | – | – | – | – | – | – | – |
| CN1CCN(CCCOC(=O)c2c3c(n4cc(Br)ccc24)C(=O)c2ncccc2C3=O)CC1 | 4 (≈ 7.82 µM) | > 16 | 16 (≈ 31.3 µM) | > 16 | 4 (≈ 7.82 µM) | 16 (≈ 31.3 µM) | 8 (≈ 15.6 µM) | 16 (≈ 31.3 µM) | – | – | – | – | – | – | – |
| CCOC(=O)c1c2c(n3cc(Br)ccc13)C(=O)c1ncccc1C2=O | 0.063 (≈ 0.158 µM) | 0.016 (≈ 0.0401 µM) | 4 (≈ 10 µM) | > 16 | 0.063 (≈ 0.158 µM) | 4 (≈ 10 µM) | 0.063 (≈ 0.158 µM) | 0.125 (≈ 0.313 µM) | – | – | – | – | – | – | – |
| CN(C)CCCCOC(=O)c1c2c(n3cc(Br)ccc13)C(=O)c1ncccc1C2=O | 0.25 (≈ 0.532 µM) | 2 (≈ 4.25 µM) | 8 (≈ 17 µM) | 1 (≈ 2.13 µM) | 2 (≈ 4.25 µM) | 16 (≈ 34 µM) | 4 (≈ 8.5 µM) | 4 (≈ 8.5 µM) | – | – | – | – | – | – | – |
| O=C1c2cccnc2C(=O)c2c1c(C(=O)OCCCCN1CCCCC1)c1ccc(Br)cn21 | 0.125 (≈ 0.245 µM) | 1 (≈ 1.96 µM) | 4 (≈ 7.84 µM) | 4 (≈ 7.84 µM) | 1 (≈ 1.96 µM) | 16 (≈ 31.3 µM) | 1 (≈ 1.96 µM) | 2 (≈ 3.92 µM) | – | – | – | – | – | – | – |
| CN1CCN(CCCCCOC(=O)c2c3c(n4cc(Br)ccc24)C(=O)c2ncccc2C3=O)CC1 | ≤ 0.0078 | 0.25 (≈ 0.463 µM) | 2 (≈ 3.71 µM) | 2 (≈ 3.71 µM) | 0.25 (≈ 0.463 µM) | 8 (≈ 14.8 µM) | 0.25 (≈ 0.463 µM) | 0.25 (≈ 0.463 µM) | – | – | – | – | – | – | – |
| CCOC(=O)c1c2c(n3cc(Br)ccc13)C(=O)c1nccnc1C2=O | – | – | – | 16 (≈ 40 µM) | – | – | 0.25 (≈ 0.625 µM) | – | – | – | – | – | – | – | – |
| O=C1c2cccnc2C(=O)c2c1c(C(=O)OCCCO)c1ccc(Br)cn21 | 0.125 (≈ 0.291 µM) | 0.25 (≈ 0.582 µM) | 8 (≈ 18.6 µM) | 8 (≈ 18.6 µM) | 0.25 (≈ 0.582 µM) | 8 (≈ 18.6 µM) | 0.125 (≈ 0.291 µM) | 0.25 (≈ 0.582 µM) | – | – | – | – | – | – | – |
| O=C1c2cccnc2C(=O)c2c1c(C(=O)OCCCCCN1CCCC1)c1ccc(Br)cn21 | ≤ 0.0078 | 0.5 (≈ 0.98 µM) | 1 (≈ 1.96 µM) | 2 (≈ 3.92 µM) | 0.5 (≈ 0.98 µM) | 8 (≈ 15.7 µM) | 0.5 (≈ 0.98 µM) | 0.25 (≈ 0.49 µM) | – | – | – | – | – | – | – |
| CN(C)CCCOC(=O)c1c2c(n3cc(Br)ccc13)C(=O)c1ncccc1C2=O | 0.25 (≈ 0.548 µM) | 2 (≈ 4.38 µM) | 8 (≈ 17.5 µM) | 1 (≈ 2.19 µM) | 1 (≈ 2.19 µM) | 16 (≈ 35.1 µM) | 1 (≈ 2.19 µM) | 2 (≈ 4.38 µM) | – | – | – | – | – | – | – |
| O=C1c2cccnc2C(=O)c2c1c(C(=O)OCCCCN1CCCC1)c1ccc(Br)cn21 | 0.125 (≈ 0.252 µM) | 1 (≈ 2.01 µM) | 4 (≈ 8.06 µM) | 1 (≈ 2.01 µM) | 1 (≈ 2.01 µM) | 8 (≈ 16.1 µM) | 2 (≈ 4.03 µM) | 4 (≈ 8.06 µM) | – | – | – | – | – | – | – |
| CN(C)CCCCCCOC(=O)c1c2c(n3cc(Br)ccc13)C(=O)c1ncccc1C2=O | ≤ 0.0078 | 0.5 (≈ 1 µM) | 2 (≈ 4.01 µM) | 2 (≈ 4.01 µM) | 0.25 (≈ 0.502 µM) | 8 (≈ 16.1 µM) | 0.25 (≈ 0.502 µM) | 0.5 (≈ 1 µM) | – | – | – | – | – | – | – |
| CCOC(=O)c1c2c(n3cccc(Br)c13)C(=O)c1nccnc1C2=O | – | – | – | > 16 | – | – | 1 (≈ 2.5 µM) | – | – | – | – | – | – | – | – |
| O=C1c2cccnc2C(=O)c2c1c(C(=O)OCCCN1CCCC1)c1ccc(Br)cn21 | 0.25 (≈ 0.518 µM) | 1 (≈ 2.07 µM) | 4 (≈ 8.29 µM) | 0.5 (≈ 1.04 µM) | 1 (≈ 2.07 µM) | 8 (≈ 16.6 µM) | 2 (≈ 4.15 µM) | 2 (≈ 4.15 µM) | – | – | – | – | – | – | – |
| O=C1c2cccnc2C(=O)c2c1c(C(=O)OCC(O)CO)c1ccc(Br)cn21 (configuration not stated) | 1 (≈ 2.25 µM) | > 16 | 16 (≈ 35.9 µM) | 4 (≈ 8.98 µM) | 2 (≈ 4.49 µM) | 16 (≈ 35.9 µM) | 2 (≈ 4.49 µM) | 4 (≈ 8.98 µM) | – | – | – | – | – | – | – |
| CN[C@H](CC(C)C)C(=O)N[C@H]1C(=O)N[C@@H](CC(N)=O)C(=O)N[C@H]2C(=O)N[C@H]3C(=O)N[C@H](C(=O)N[C@H](C(=O)O)c4cc(O)cc(O)c4-c4cc3ccc4O)[C@H](O)c3ccc(c(Cl)c3)Oc3cc2cc(c3O[C@@H]2O[C@H](CO)[C@@H](O)[C@H](O)[C@H]2O[C@H]2C[C@](C)(N)[C@H](O)[C@H](C)O2)Oc2ccc(cc2Cl)[C@H]1O [VANCOMYCIN] | – | – | – | – | – | – | – | – | 1 (≈ 0.69 µM) | 2 (≈ 1.38 µM) | > 16 | 16 (≈ 11 µM) | > 16 | > 16 | > 16 |
| O=C1c2cccnc2C(=O)c2c1c(C(=O)OCCO)c1ccc(Br)cn21 | 0.125 (≈ 0.301 µM) | 0.25 (≈ 0.602 µM) | 8 (≈ 19.3 µM) | 4 (≈ 9.63 µM) | 0.125 (≈ 0.301 µM) | 8 (≈ 19.3 µM) | 0.125 (≈ 0.301 µM) | 0.5 (≈ 1.2 µM) | – | – | – | – | – | – | – |
| O=C1c2cccnc2C(=O)c2c1c(C(=O)OCCCCCN1CCCCC1)c1ccc(Br)cn21 | 0.125 (≈ 0.238 µM) | 0.5 (≈ 0.953 µM) | 4 (≈ 7.63 µM) | 4 (≈ 7.63 µM) | 2 (≈ 3.81 µM) | 8 (≈ 15.3 µM) | 1 (≈ 1.91 µM) | 1 (≈ 1.91 µM) | – | – | – | – | – | – | – |
